Legend:
Assay type in all cases: cell-based
[1] = test system: YAP/TAZ-TEAD transcription; assay: Reporter gene assay for measuring the inhibition of YAP/TAZ-TEAD transcription (TEAD-responsive element luciferase reporter in Hek293T cells); details: 24 hours incubation
In short: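 Hek293T cells transiently transfected with a TEAD-responsive element luciferase reporter were plated onto compounds and incubated 24 h at 37 °C/5% CO2. SteadyLite luminescence gave percent inhibition, normalised to vehicle (0%) and positive control inhibitor (100%); EC50 derived.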

[2] = test system: H2452; assay: Mesothelioma cell line proliferation assay, H2452; details: Homo sapiens, NCI-H2452; H2452 cells
[3] = test system: NCI-H226; assay: Mesothelioma cell line proliferation assay (ATPlite), NCI-H226; details: NCI-H226 cells, 6 days, ATPlite cell viability
Procedure: (§1) Mesothelioma cell lines, NCI-H226 and NCI-H2052 (all sourced from the ATCC cell culture collection) are plated in 96-well plates (Corning® 96 Well White Polystyrene Microplate clear flat bottom, white polystyrene (TC-Treated)), at 1500 cells/well in full medium (RPMI 1640 ATCC modification with L-glutamine, HEPES, Phenol Red, Sodium Pyruvate, High glucose, Low sodium bicarbonate and 10% fetal bovine serum). Cells are incubated overnight at 37° C. in an incubator with 5% CO2. Then compounds, dissolved in DMSO, are added in dose-response. Cells are incubated with compound dilutions for another 6 days at 37° C. in an incubator with 5% CO2. Cell viability is quantitated using the ATPlite kit (Perkin-Elmer) and the luminescence is read-out using an Envision instrument (Perkin-Elmer). The amount of relative light units produced using the ATPlite kit is used to calculated percent of inhibition.
(§2) The activities of example compounds tested are depicted in the table below. The activity ranges A, B and C refer to EC50 values in the mesothelioma cell line proliferation assay as described as follows: “A”: EC50<1 μM; “B”: 1 μM s EC50≤10 μM and “C”: EC50>10 μM. NT: not tested.

[4] = test system: NCI-H2052; assay: Mesothelioma cell line proliferation assay (ATPlite), NCI-H2052; details: NCI-H2052 cells, 6 days, ATPlite cell viability
Procedure: as §1, §2

SMILES | EC50 ([1]; Homo sapiens, HEK-293T) | EC50 [2] | EC50 ([3]; Homo sapiens, 144 h) | EC50 ([4]; Homo sapiens, NCI-H2052, 144 h) | EC50 [1] | EC50 [4] | EC50 [3]
CNS(=O)(=O)CCNc1ccc(-c2ccc(F)cc2)cc1-c1ccn(Cc2cccnc2)n1 [compound 086, 2-((4′-fluoro-3-(1-(pyridin-3-ylmethyl)-1H-pyrazol-3-yl)-[1,1′-biphenyl]-4-yl)amino)-N-methylethane-1-sulfonamide] | < 1000 nM | > 10000 nM | 1000 to 10000 nM | – | – | – | –
CNS(=O)(=O)CCNc1ccc(-c2ccc(C(F)(F)F)cc2)cc1-c1ccn(Cc2cccnc2)n1 [compound 087, N-methyl-2-((3-(1-(pyridin-3-ylmethyl)-1H-pyrazol-3-yl)-4′-(trifluoromethyl)-[1,1′-biphenyl]-4-yl)amino)ethane-1-sulfonamide] | < 1000 nM | > 10000 nM | 1000 to 10000 nM | – | – | – | –
CNS(=O)(=O)CCNc1ccc(-c2ccc(F)c(F)c2)cc1-c1ccn(Cc2cccnc2)n1 [compound 093, 2-((3′,4′-difluoro-3-(1-(pyridin-3-ylmethyl)-1H-pyrazol-3-yl)-[1,1′-biphenyl]-4-yl)amino)-N-methylethane-1-sulfonamide] | < 1000 nM | > 10000 nM | < 1000 nM | – | – | – | –
CNS(=O)(=O)CCNc1ccc(-c2cccc(F)c2)cc1-c1ccn(C)n1 [compound 119, 2-((3′-fluoro-3-(1-methyl-1H-pyrazol-3-yl)-[1,1′-biphenyl]-4-yl)amino)-N-methylethane-1-sulfonamide] | < 1000 nM | > 10000 nM | > 10000 nM | – | – | – | –
CNS(=O)(=O)CCNc1ccc(-c2ccc(C(F)(F)F)cc2)cc1-c1ccn(C)n1 [compound 118, N-methyl-2-((3-(1-methyl-1H-pyrazol-3-yl)-4′-(trifluoromethyl)-[1,1′-biphenyl]-4-yl)amino)ethane-1-sulfonamide] | < 1000 nM | > 10000 nM | 1000 to 10000 nM | – | – | – | –
CNS(=O)(=O)CCNc1ccc(-c2ccc(F)cc2)cc1-c1ccn(C)n1 [compound 117, 2-((4′-fluoro-3-(1-methyl-1H-pyrazol-3-yl)-[1,1′-biphenyl]-4-yl)amino)-N-methylethane-1-sulfonamide] | < 1000 nM | > 10000 nM | > 10000 nM | – | – | – | –
C=CC(=O)NCc1ccc(-c2cccc(F)c2)cc1-c1ccn(C)n1 [compound 142, N-((3′-fluoro-3-(1-methyl-1H-pyrazol-3-yl)-[1,1′-biphenyl]-4-yl)methyl)acrylamide] | < 1000 nM | – | < 1000 nM | < 1000 nM | – | – | –
C=CC(=O)NCc1cnc(N2CCC(F)(F)CC2)cc1-c1ccn(C(F)F)n1 [compound 221, N-((4-(1-(difluoromethyl)-1H-pyrazol-3-yl)-6-(4,4-difluoropiperidin-1-yl)pyridin-3-yl)methyl)acrylamide] | < 1000 nM | – | < 1000 nM | 1000 to 10000 nM | – | – | –
C=CC(=O)NCc1ccc(-c2ccc(F)cc2)nc1-c1ccn(C(F)F)n1 [compound 198, N-((2-(1-(difluoromethyl)-1H-pyrazol-3-yl)-6-(4-fluorophenyl)pyridin-3-yl)methyl)acrylamide] | < 1000 nM | – | < 1000 nM | < 1000 nM | – | – | –
CNS(=O)(=O)CCNc1cnc(-c2ccc(F)cc2)cc1-c1ccn(C(F)F)n1 [compound 131, 2-((4-(1-(difluoromethyl)-1H-pyrazol-3-yl)-6-(4-fluorophenyl)pyridin-3-yl)amino)-N-methylethane-1-sulfonamide] | < 1000 nM | – | 1000 to 10000 nM | > 10000 nM | – | – | –
C=CC(=O)NCc1cc(-c2ccc(F)cc2)cc(-c2ccn(C3CC3)n2)c1 [compound 169, N-((5-(1-cyclopropyl-1H-pyrazol-3-yl)-4′-fluoro[1,1′-biphenyl]-3-yl)methyl)acrylamide] | < 1000 nM | – | < 1000 nM | 1000 to 10000 nM | – | – | –
C=CC(=O)NCc1cnc(-c2cccc(Cl)c2)cc1-c1ccn(C(F)F)n1 [compound 213, N-((6-(3-chlorophenyl)-4-(1-(difluoromethyl)-1H-pyrazol-3-yl)pyridin-3-yl)methyl)acrylamide] | < 1000 nM | – | < 1000 nM | 1000 to 10000 nM | – | – | –
C=CC(=O)NCc1ccc(-c2cccc(C(F)(F)F)c2)cc1-c1ccn(C)n1 [compound 141, N-((3-(1-methyl-1H-pyrazol-3-yl)-3′-(trifluoromethyl)-[1,1′-biphenyl]-4-yl)methyl)acrylamide] | < 1000 nM | – | < 1000 nM | < 1000 nM | – | – | –
C=CC(=O)NCc1ccc(-c2ccc(C(F)(F)F)cc2)cc1-c1ccn(C2CC2)n1 [compound 167, N-((3-(1-cyclopropyl-1H-pyrazol-3-yl)-4′-(trifluoromethyl)-[1,1′-biphenyl]-4-yl)methyl)acrylamide] | < 1000 nM | – | 1000 to 10000 nM | < 1000 nM | – | – | –
C=CC(=O)NCc1ccc(-c2ccc(F)cc2)nc1-c1ccn(C)n1 [compound 193, N-((6-(4-fluorophenyl)-2-(1-methyl-1H-pyrazol-3-yl)pyridin-3-yl)methyl)acrylamide] | < 1000 nM | – | < 1000 nM | < 1000 nM | – | – | –
C=CC(=O)NCc1cnc(-c2cccc(F)c2)cc1-c1ccn(C(F)F)n1 [compound 211, N-((4-(1-(difluoromethyl)-1H-pyrazol-3-yl)-6-(3-fluorophenyl)pyridin-3-yl)methyl)acrylamide] | < 1000 nM | – | < 1000 nM | 1000 to 10000 nM | – | – | –
CNS(=O)(=O)CCNc1ccc(-c2ccc(F)c(F)c2)cc1-c1ccn(C)n1 [compound 124] | < 1000 nM | > 10000 nM | 1000 to 10000 nM | – | – | – | –
C=CC(=O)NCc1cnc(-c2cccc(C(F)(F)F)c2)cc1-c1ccn(C(F)F)n1 [compound 215, N-((4-(1-(difluoromethyl)-1H-pyrazol-3-yl)-6-(3-(trifluoromethyl)phenyl)pyridin-3-yl)methyl)acrylamide] | < 1000 nM | – | < 1000 nM | 1000 to 10000 nM | – | – | –
C=CC(=O)NCc1ccc(-c2ccc(F)cc2)cc1-c1cn(C(F)F)nn1 [compound 185, N-((3-(1-(difluoromethyl)-1H-1,2,3-triazol-4-yl)-4′-fluoro-[1,1′-biphenyl]-4-yl)methyl)acrylamide] | < 1000 nM | – | < 1000 nM | 1000 to 10000 nM | – | – | –
C=CC(=O)NCc1cc(C2CCC(F)(F)CC2)cc(-c2ccn(C(F)F)n2)n1 [Cpd. No. 228, N-((4-(4,4-difluorocyclohexyl)-6-(1-(difluoromethyl)-1H-pyrazol-3-yl)pyridin-2-yl)methyl)acrylamide] | < 1000 nM | – | < 1000 nM | > 10000 nM | – | – | –
C=CC(=O)NCc1cnc(-c2ccc(F)cc2)cc1-n1nnc(C)n1 [Cpd. No. 249, N-((6-(4-fluorophenyl)-4-(5-methyl-2H-tetrazol-2-yl)pyridin-3-yl)methyl)acrylamide] | < 1000 nM | – | < 1000 nM | 1000 to 10000 nM | – | – | –
C=CC(=O)N1CCC(c2cnc(-c3ccc(F)cc3)cc2-c2ccn(C(F)F)n2)C1 (stereo not drawn) [Cpd. No. 262-En1, 1-(3-(4-(1-(difluoromethyl)-1H-pyrazol-3-yl)-6-(4-fluorophenyl)pyridin-3-yl)pyrrolidin-1-yl)prop-2-en-1-one] | – | – | – | – | < 1000 nM | 1000 to 10000 nM | < 1000 nM
C=CC(=O)NCc1ccc(-c2ccc(F)cc2)cc1-c1ccn(CCOC)n1 [compound 149, N-((4′-fluoro-3-(1-(2-methoxyethyl)-1H-pyrazol-3-yl)-[1,1′-biphenyl]-4-yl)methyl)acrylamide] | < 1000 nM | – | < 1000 nM | < 1000 nM | – | – | –
C=CC(=O)N1CCC(c2ccc(-c3ccc(F)cc3)cc2-c2ccn(C)n2)C1 (stereo not drawn) [Cpd. No. 258, 1-(3-(4′-fluoro-3-(1-methyl-1H-pyrazol-3-yl)-[1,1′-biphenyl]-4-yl)pyrrolidin-1-yl)prop-2-en-1-one] | < 1000 nM | – | < 1000 nM | < 1000 nM | – | – | –
CNS(=O)(=O)CCNc1ccc(-c2ccccc2)cc1-c1ccn(Cc2ccccc2)n1 [compound 102, 2-((3-(1-benzyl-1H-pyrazol-3-yl)-[1,1′-biphenyl]-4-yl)amino)-N-methylethane-1-sulfonamide] | < 1000 nM | > 10000 nM | > 10000 nM | – | – | – | –
C=C(F)C(=O)NCc1ccc(-c2ccc(C(F)(F)F)cc2)cc1-c1ccn(C)n1 [compound 177, 2-fluoro-N-((3-(1-methyl-1H-pyrazol-3-yl)-4′-(trifluoromethyl)-[1,1′-biphenyl]-4-yl)methyl)acrylamide] | < 1000 nM | – | < 1000 nM | < 1000 nM | – | – | –
C=CC(=O)NCc1cnc(-c2ccc(F)cc2)cc1-c1ccn(C(F)F)n1 [compound 207, N-((4-(1-(difluoromethyl)-1H-pyrazol-3-yl)-6-(4-fluorophenyl)pyridin-3-yl)methyl)acrylamide] | < 1000 nM | – | < 1000 nM | < 1000 nM | – | – | –
C=CC(=O)NCc1ccc(-c2ccc(F)cc2)cc1-c1ccccn1 [compound 165, N-((4′-fluoro-3-(pyridin-2-yl)-[1,1′-biphenyl]-4-yl)methyl)acrylamide] | < 1000 nM | – | < 1000 nM | < 1000 nM | – | – | –
